Data set [1] has as its system peripheral blood lymphocytes (PBL). The data set is described as follows: Viability of normal peripheral blood lymphocytes. The class given is cell-based, human. The settings on record: for ratio of viable cells, treated versus untreated: two pulses at a 48 h interval, four days, mean ± SE. The method, then:
The leukemic myelomonocytic cell line U937, the T cell leukaemia cell line Jurkat, the Burkitt lymphoma cell line Namalwa were grown in RPMI 1640 medium supplemented with 10% FBS, 1% sodium pyruvate, 1% non essential aminoacids, 1% penicillin/streptomycin. 2.5·10^4 cells were seeded on 48 wells plates (Corning Costar). The treatment was performed on triplicate wells. Drug concentration ranged from 1 µM up to 30 µM, four treatments every 24 h or two treatments every 48 h were performed. Human peripheral blood lymphocytes obtained from healthy volunteers by venipuncture, were isolated by lymphocyte separation medium (Ficoll) density gradient centrifugation. Mononuclear cells from the interphase were washed twice with PBS and resuspended in RPMI 1640 medium containing 10% FCS, glutamine and antibiotics. Phytohemagglutinin (PHA) was added at 1.5 µg/ml final concentration.
PI uptake tests were performed to assess cell viability. Cells suspended in culture medium were incubated for 5 min with 3 µg/ml PI and analysed by flow cytometry. […] At least 10,000 events were acquired on a logarithmic scale from each sample.
Bone marrow aspirates from patients with different leukaemia types were plated in tissue culture medium supplemented with 20% FCS, treated with 072RB twice every 48 h, and followed for 4 days. They were evaluated by flow cytometry DNA/SSC analysis, In Table 3 we show the percentage of [early + late apoptotic cells], according to leukaemia type and Int or 072RB dosage. To further study sensitivity to 072RB of normal cells, peripheral blood lymphocytes (PBL) isolated from four independent healthy donors were subjected to a four-days treatment with 10 µM 072RB. Treatment was performed, as usual, with two pulses at a 48 h interval. Lymphocytes were either un-stimulated or activated by PHA. […] Comparing treated and untreated normal peripheral lymphocytes, the ratio of viable cells between the two groups was 0.87 ± 0.05 (mean ± SE) for quiescent lymphocytes and 0.82 ± 0.057 for proliferating lymphocytes. This effect of 072RB on normal lymphocytes seems especially small if we consider the effects observed in leukaemia cell lines (see supplementary information), and also the effects observed in AML cells from ex vivo experiments: 0.55 ± 0.145 (mean ± SE). Table 3: Effect of 072RB on haematological malignancies (AML: acute myeloid leukaemia; ALL: acute lymphoid leukaemia; NBM: normal bone marrow): percentage of early/late apoptotic cells. Mean values from duplicate experiments are reported. The difference between the two individual values never exceeded 15% of the mean value. Ex vivo isolated cells were treated with either Int or 072RB at day 0, 2 (5, 10 µM), at day 0, 1, 2, 3 (1, 3 µM) and analysed after PI staining at day 4.

The test system of data set [2] is U937, Jurkat, Namalwa. The data set is described as follows: Cell growth, cell counts (trypan blue exclusion), three cell lines. The class given is cell-based, human. The settings on record: 10 µM, twice every 48 h, four days. The method, then: • Figure 1 Fluorescence Anisotropy Assay. Average anisotropy values: (open square) binding assay for increasing concentrations of Bcl-XL at a fixed concentration of fluorescent Bak-BH3 peptide. […] The error bars represent standard deviations observed from triplicate experiments. • Figure 2 072RB: cell growth effects. Panel A: Cell growth of U937 cell line treated for four days every 24 h at a 1 µM 072RB concentration and every 48 h at 3, 5, 10 and 30 µM 072RB concentrations. U937 controls at day 4, cell number: 350,000 ±50,000. Number of cells seeded at day 0: 20,000. Arrows indicate treatment time. […] All cells were counted in a Burker chamber and values are expressed as percentage of the untreated control cell number. Only living cells identified by trypan blue exclusion staining were counted. […] Flow cytometry measurements of DNA content (evaluated by propidium iodide (PI) fluorescence intensity) and physical cell side-scattering (evaluated by SSC) in U937 cells treated with Int and 072RB at 10 µM, twice each 48h. […] Three main cell populations can be observed in the bivariate PI/SSC plots, one with low SSC and normal DNA content (that accounts for "live" cells in culture), another with high SSC and normal DNA content (cells undergoing "early stage of apoptosis") and another one with lower PI fluorescence (cells at "late stage of apoptosis" and debris). […]

Where a SMILES comes first, the peptide text is derived from it. [ ]: non-standard residue; d: D form. Aib = CC(C)(N)C(=O)O

`CC[C@H](C)[C@H](NC(=O)[C@H](CCCNC(=N)N)NC(=O)[C@H](CCCNC(=N)N)NC(=O)[C@H](CC(C)C)NC(=O)[C@H](CCC(=O)O)NC(=O)[C@H](CCC(N)=O)NC(=O)C(C)(C)NC(=O)[C@@H](NC(=O)[C@H](Cc1ccc(O)cc1)NC(=O)[C@@H](NC(=O)[C@H](CCC(=O)O)NC(=O)[C@@H]1CCCN1C(=O)[C@H](CCCNC(=N)N)NC(=O)[C@H](CCSC)NC(=O)[C@@H](N)CC(=O)O)[C@@H](C)CC)[C@@H](C)CC)C(=O)NCC(=O)N[C@@H](CC(=O)O)C(=O)N[C@@H](C)C(=O)N[C@@H](Cc1ccccc1)C(=O)N[C@@H](CC(N)=O)C(=O)NC(C)(C)C(=O)N[C@@H](Cc1ccc(O)cc1)C(=O)N[C@@H](CCCCN)C(=O)N[C@@H](CCCCN)C(=O)N[C@@H](Cc1c[nH]c2ccccc12)C(=O)N[C@@H](CCCCN)C(=O)N[C@@H](CCSC)C(=O)N[C@@H](CCCNC(=N)N)C(=O)N[C@@H](CCCNC(=N)N)C(=O)N[C@@H](CC(N)=O)C(=O)N1CCC[C@H]1C(=O)N[C@@H](Cc1ccccc1)C(=O)N[C@@H](Cc1c[nH]c2ccccc12)C(=O)N[C@H](C(=O)N[C@@H](CCCCN)C(=O)N[C@H](C(=O)N[C@@H](CCC(N)=O)C(=O)N[C@@H](CCCNC(=N)N)C(N)=O)[C@@H](C)CC)[C@@H](C)CC` [Peptide 072RB] (H-DMRPEIYI[Aib]QELRRIGDAFN[Aib]YKKWKMRRNPFWIKIQR-NH2; N-terminus and C-terminus assumed): the “effect on cell viability and cell proliferation” value in data set [1] (normal peripheral lymphocytes, data not reported) is reported as “cytostatic rather than cytotoxic”. Also, the “ratio of viable cells, treated versus untreated” value in data set [1] (proliferating (PHA activated) lymphocytes, 10 µM) is 0.82 ± 0.057. Moreover, in data set [1] (quiescent lymphocytes, 10 µM), the toxicity result is “quite negligible” and the “ratio of viable cells, treated versus untreated” value stood at 0.87 ± 0.05. Besides, the “cell growth compared to control cultures” value in data set [2] is reported as “progressive decrease of cell growth”.

The record behind these values is patent publication EP1985629A1, “Pro-apoptotic molecules and therapeutic uses thereof” (UNIVERSITA DEGLI STUDI DI GENOVA, priority 2007, dated 2008).
